Assay results taken from US20150296779A1, “SUBSTITUTED DIHYDROPYRIDINES FOR SOMATIC EMBRYOGENESIS IN PLANTS” (STICHTING DIENST LANDBOUWKUNDIG ONDERZOEK, priority 2012, published 2015).

Columns and labels:
Format in all cases: in vivo, Arabidopsis thaliana
Arabidopsis seedlings [1] = assay: Dose-response analysis for somatic embryo induction in containers (circa 30 seeds in 30 ml medium; FIG. 2, FIG. 4)
From the text: (§1) The chemical screen was based on a modified version of an Arabidopsis somatic embryogenesis protocol that uses germinated seeds as explants (see Kobayashi et al., 2010 Kobayashi T, Nagayama Y, Higashi K and Kobayashi M. (2010). Establishment of a tissue culture system for somatic embryogenesis from germinating embryos of Arabidopsis thaliana Plant Biotech. 27: 359-364). In the original protocol, seeds were germinated on solid medium for one day, then the embryos were removed from the seed coat and transferred to solid media containing 4.5 μM 2,4-D to stimulate somatic embryo development. In this example, the protocol is simplified by germinating and culturing the seeds continuously in liquid medium containing 1 μM 2,4-D. Under optimized culture conditions (circa 30 seeds in 30 ml medium) approximately 18% of Col0 seeds form somatic embryos.
(§2) Approximately 10 surface-sterilized Columbia (Col-0) seeds were added to each well. The seeds were stratified at 4° C. in the dark for two days and then grown in on a rotary shaker (100 rpm/min) on a 16 h/8 h day/night cycle at 25° C. The number of seedlings that formed somatic embryos was counted two weeks later. […] Positive compounds were analysed using ChemMine (http://bioweb.ucr.edu/ChemMineV2/), ChemSpider (http://www.chemspider.com/) and the ZINC database (http://zinc.docking.org) for analogues with a putative biological function. […]

Arabidopsis seedlings [2] = assay: Testing of compounds for somatic embryogenesis activity in the presence of 2,4-D (FIG. 1); conditions: in the presence of 1 μM 2,4-D
From the text: as §1, with “embryos. […]” for “embryos.”
as §2, with “The seeds were stratified at 4° C. in the dark for two days and then grown in on a rotary shaker (100 rpm/min) on a 16 h/8 h day/night cycle at 25° C.” left out

Arabidopsis seedlings [3] = assay: Somatic embryogenesis at increasing 2,4-D concentrations with or without 25 μM C#5 (FIG. 3)
Procedure: All subsequent experiments were performed under the conditions described above, but using 100 ml containers (Greiner) containing 30 ml of medium media using approximately 30 seeds/container. All hormones were ordered from Duchefa and Dicamba from Sigma-Aldrich.
2,4-D is widely used to induce somatic embryogenesis from plant explant. In Arabidopsis immature zygotic embryos occasionally form somatic embryos when grown in basal medium, while germinating embryos or other vegetative tissues are unable to form embryos.

| SMILES | Col0 seeds that form somatic embryos (Arabidopsis seedlings [1]; liquid medium containing 1 μM 2,4-D alone, circa 30 seeds in 30 ml medium) | level of SE, as measured by the percentage of seedlings with somatic embryos (Arabidopsis seedlings [2]) | seedlings with somatic embryo development (Arabidopsis seedlings [1]; at about 10 to about 50 μM compound, compared to circa 5% of seedlings in the control) | somatic embryo formation in the absence of 2,4-D (Arabidopsis seedlings [3]; 25 μM C#5, 0 μM 2,4-D) | somatic embryo formation at all of the tested 2,4-D concentrations (Arabidopsis seedlings [3]; 25 μM C#5, 2,4-D up to 2 μM, versus control (2,4-D only)) | threshold concentration of 2,4-D needed to achieve enhanced SE (Arabidopsis seedlings [3]; using 25 μM of C#5, seedlings grown in containers) |
| --- | --- | --- | --- | --- | --- | --- |
| O=C(O)COc1ccc(Cl)cc1Cl [2,4-D, 2,4-dichlorophenoxyacetic acid, reference compound] | approximately 18% |  |  |  |  |  |
| CC1=C(C(=O)OC2CCCC2)C(c2ccncc2)C2=C(CC(C)(C)CC2=O)N1 (stereo not drawn) [C#5, cyclopentyl 2,7,7-trimethyl-5-oxo-4-(4-pyridinyl)-1,4,5,6,7,8-hexahydro-3-quinolinecarboxylate] |  | high percentage | about 50% | not able to induce somatic embryo formation | did enhance somatic embryo formation | about 0.4 μM |
